The text below walks through data of PMC8107365, “Overlapping Properties of the Short Membrane-Active Peptide BP100 With (i) Polycationic TAT and (ii) α-helical Magainin Family Peptides” (Frontiers in Cellular and Infection Microbiology, 2021).

In data set [1] the test system is human erythrocytes. Nature of the data set: Hemolysis assay. Particulars: for HC10, concentration that induced 10% hemolysis: human erythrocytes 0.25% (v/v), Tris buffer pH 7.6/DMSO, 37°C, 20 min, absorbance 540 nm, relative to Triton X-100, up to 100 µM peptide. Here is the method: The hemolytic effect of the peptides was tested on human erythrocytes as previously described ([Strandberg et al., 2007]). Citrate phosphate dextrose-stabilized blood bags with erythrocyte suspensions were obtained from the blood bank of the local municipal hospital (Karlsruhe, Germany). Erythrocytes were washed twice with 9-fold excess of Tris buffer (172 mM, pH 7.6 at 0°C) followed by centrifugation at 600 g for 10 min at 4°C, and kept on ice in between. After the second wash, the erythrocytes were transferred from the sediment to a fresh tube with the same precooled buffer to be diluted to about 10% (v/v) hematocrit, giving the stock cell suspension, which was kept on ice. […] The stock cell suspension was further diluted to about 0.5% (v/v). After preincubating for 3 min, 200 μL of the resulting erythrocyte dilution was transferred to each tube of the corresponding peptide serial dilution, to a final concentration of 0.25% (v/v). For each dilution series, zero hemolysis was obtained by adding the erythrocytes to Tris buffer (pH 7.6 at 37°C)/dimethylsulfoxide (9:1 v/v) and measuring the background lysis in the absence of peptide. For 100% hemolysis, the erythrocytes were added to 0.2% of Triton X-100 (Sigma, Germany) in the same buffer, giving a final concentration of 0.1% Triton X-100. Incubation was performed at 37°C for 20 min with gentle shaking. The tubes were centrifuged at 20 000 g for 5 min to pellet the cells, and the absorbance at 540 nm was recorded against water. The percentage lysis was then calculated relative to 0% lysis with buffer and 100% lysis by Triton X-100. The absorbance measurement was repeated three times, and the averaged values are used.

Data set [2] has as its system Kocuria rhizophila (DSM 348). As for the experimental part: (§1) The antimicrobial activity of BP100 was tested using a standard MIC dilution assay, as previously described ([Strandberg et al., 2007]; [Wadhwani et al., 2012a]). Two Gram-negative strains, Escherichia coli (DSM 498) (K12) and Enterobacter helveticus (DSM 18396), and one Gram-positive strain, Kocuria rhizophila (DSM 348) were used. Bacteria were grown in Luria-Bertani medium at 37°C and 230 rpm overnight, and diluted in 1% trypticase soy broth (TSB). Peptide stock solutions (1024 μg/mL) were prepared in water. Microtiter plates (96 wells of 100 μl) were filled with 50 μl of 1% TSB, and serial 2-fold dilutions of peptides were arranged in columns. The two final rows of each plate remained without peptide, so that the penultimate data point served as the positive control (no peptide) and the final one as the negative control (not inoculated). To each well (except for the final row of each plate), an aliquot of 50 µl of a bacterial suspension containing 10^6 colony-forming units/mL was added to obtain a final volume of 100 µL. Antibacterial activities are expressed as the MIC and correspond to the lowest concentration of peptide, in micromolar units, at which no bacterial growth was detected after overnight incubation at 37°C. The tests were made in triplicate for each peptide, and the value shown is the lowest concentration where at least for two repetitions the growth was inhibited.

For data set [3], the system named is Escherichia coli (DSM 498) (K12). Here is the method: as §1
Data set [4] has as its system Enterobacter helveticus (DSM 18396). Here is the method:
as §1

Data set [5] concerns HeLa cells. The data set is described as follows: Toxicity against HeLa cells (calcein AM, fluorescence microscopy). Particulars: for Toxicity (HeLa): overview Figure 5; for HeLa cells: lowest tested concentration where dead HeLa cells were observed: peptides N-terminally labeled with Fluka 630 red, 30 min, 37°C, HKR buffer pH 7.4, calcein AM, confocal microscopy. The format is cell-based, human. As for the experimental part: HeLa TK A549 cells (from DSMZ, Braunschweig, Germany) were cultivated in minimal essential medium (MEM) with 10% fetal calf serum (FCS) (PAA, Cöble, Germany), and Glutamax (Invitrogen, Karlsruhe, Germany), without antibiotics. Cell density after incubation over night was 30000 cells/chamber in 300 µL medium. For experiments, the medium was removed and cells incubated with peptides at the respective concentration in HEPES Krebs Ringer (HKR) buffer, which consists of 5 mM HEPES, 137 mM NaCl, 2.68 mM KCl, 2.05 mM MgCl2, 1.8 mM CaCl2, and 5.55 mM glucose, pH 7.4. After 30 min (37°C, 5% CO2) cells were washed with HKR buffer, and the behavior of cells at variable peptide concentration examined. A confocal microscope type SP 5 from Leica was used for fluorescence microscopy. The 488 nm line of an argon laser was used for excitation of calcein and the 633 nm line of a helium-neon laser was used for excitation of Fluka 630 red. For kinetic experiments, cells were washed after incubation for 30 minutes and placed into MEM medium at 37°C, and studied after 1, 2, 4, 8 and 24 h. Five minutes before microscopy, calcein AM (Fluka, Buchs, Switzerland) was added to a final concentration of 1 nM to examine cell viability. To avoid artifacts, cells were not fixed.

Data set [6] relates to erythrocytes. Particulars: ref Sabatier et al., 1991; Wang et al., 2010; cited from earlier work. An excerpt:
Considering that Table 2 (and Figure 2 ) gives the percent of hemolysis as a function of concentration in µM, it can be noted that BP100 c ...

Data set [7] concerns tested bacteria. Particulars: E. coli DSM 498, E. helveticus, K. rhizophila. Here is the method:
as §1

For data set [8] the following is noted: ref Thorén et al., 2005; cited from earlier work. An excerpt: Another kind of action of membrane-bound peptides is to facilitate fusion between membranes of vesicles or cells. We find here that BP100 has strong fusogenic activity ( Figure 4 ), even higher than the dedicated fusion peptide, FP23 from HIV-1, except in uncharged POPC/CHOL. […] These fusion results fit well with a previous comparison of different AMPs and CPPs ([Wadhwani et al., 2012b]). Obvio ...

[9] abbreviates: serial 2-fold dilution, 1% TSB, overnight 37°C, triplicate, lowest concentration inhibiting growth in at least two repetitions.

Values after ≈ are worked out from the molar mass of the structure shown. Values joined by “and” are separate entries in the source; they are usually repeats but may differ in a detail not shown here. Identical values can stand only once. Like-named read-outs stand apart in the source and are kept apart here. Marks after values point to notes of the source that are not given here. Where a SMILES comes first, the peptide text is derived from it.

As to `CC[C@H](C)[C@H](NC(=O)[C@H](CCCCN)NC(=O)[C@H](CCCCN)NC(=O)[C@H](Cc1ccccc1)NC(=O)[C@H](CC(C)C)NC(=O)[C@H](CCCCN)NC(=O)[C@@H](N)CCCCN)C(=O)N[C@@H](CC(C)C)C(=O)N[C@@H](CCCCN)C(=O)N[C@@H](Cc1ccc(O)cc1)C(=O)N[C@@H](CC(C)C)C(N)=O` [BP100], in data set [1], the “HC10, concentration that induced 10% hemolysis” value is 45 µM. For the same compound, in data set [1] (overview Figure 5), the Hemolysis result was “++”. Moreover, the “MIC K. rhizophila” value in data set [2] (setting [9]) was found to be 3.2 µM (≈ 4.55 µg/mL). The “MIC E. coli (DSM 498)” value in data set [3] (setting [9]) amounted to 6.3 µM (≈ 8.95 µg/mL). Besides, the “MIC E. helveticus” value in data set [4] (setting [9]) was found to be 6.3 µM (≈ 8.95 µg/mL). In data set [5], the “Toxicity (HeLa)” value was “+++” and the “HeLa cells: lowest tested concentration where dead HeLa cells were observed” value (from here on “HeLa cells”) was 4 µM.
As to `CC[C@H](C)[C@H](NC(=O)CN)C(=O)NCC(=O)N[C@@H](CCCCN)C(=O)N[C@@H](Cc1ccccc1)C(=O)N[C@@H](CC(C)C)C(=O)N[C@@H](Cc1c[nH]cn1)C(=O)N[C@@H](CO)C(=O)N[C@@H](C)C(=O)N[C@@H](CCCCN)C(=O)N[C@@H](CCCCN)C(=O)N[C@@H](Cc1ccccc1)C(=O)NCC(=O)N[C@@H](CCCCN)C(=O)N[C@@H](C)C(=O)N[C@@H](Cc1ccccc1)C(=O)N[C@H](C(=O)NCC(=O)N[C@@H](CCC(=O)O)C(=O)N[C@H](C(=O)N[C@@H](CCSC)C(=O)N[C@@H](CC(N)=O)C(=O)N[C@@H](CO)C(=O)O)[C@@H](C)CC)C(C)C` [MAG2, magainin 2] (H-GIGKFLHSAKKFGKAFVGEIMNS-OH), in data set [5], the “Toxicity (HeLa)” value is recorded as “+” and the “HeLa cells” value was 20 µM.
As for `CC(C)C[C@H](NC(=O)[C@H](C)NC(=O)[C@H](CCCCN)NC(=O)[C@H](CC(C)C)NC(=O)[C@H](C)NC(=O)[C@H](CC(C)C)NC(=O)[C@H](CCCCN)NC(=O)[C@H](CC(C)C)NC(=O)[C@H](C)NC(=O)[C@H](CC(C)C)NC(=O)[C@@H](N)CCCCN)C(=O)N[C@@H](CCCCN)C(=O)N[C@@H](C)C(=O)N[C@@H](C)C(=O)N[C@@H](CC(C)C)C(=O)N[C@@H](CCCCN)C(=O)N[C@@H](CC(C)C)C(=O)N[C@@H](C)C(N)=O` [MAP], the “HC10, concentration that induced 10% hemolysis” value in data set [1] was 2 µM. For the same compound, the Hemolysis result in data set [1] (overview Figure 5) was “+++”. The “MIC K. rhizophila” value in data set [2] (setting [9]) was 0.4 µM (≈ 0.751 µg/mL). The “MIC E. coli (DSM 498)” value in data set [3] (setting [9]) amounted to 25 µM (≈ 46.9 µg/mL). Also, the “MIC E. helveticus” value in data set [4] (setting [9]) worked out at 3.2 µM (≈ 6 µg/mL). Moreover, in data set [5], the “Toxicity (HeLa)” value is on record as “+++” and the “HeLa cells” value was 2 µM.
As to `CC[C@H](C)[C@H](NC(=O)[C@H](CCCCN)NC(=O)CNC(=O)[C@H](C)NC(=O)[C@@H](NC(=O)[C@H](CCCCN)NC(=O)[C@H](C)NC(=O)[C@@H](NC(=O)[C@H](CCCCN)NC(=O)CNC(=O)[C@H](C)NC(=O)[C@@H](NC(=O)[C@H](CCCCN)NC(=O)[C@H](C)NC(=O)[C@@H](NC(=O)[C@H](CCCCN)NC(=O)CNC(=O)[C@H](C)NC(=O)[C@@H](NC(=O)[C@@H](N)CCCCN)[C@@H](C)CC)[C@@H](C)CC)[C@@H](C)CC)[C@@H](C)CC)[C@@H](C)CC)C(=O)N[C@@H](C)C(N)=O` [MSI-103] (H-KIAGKIAKIAGKIAKIAGKIA-NH2), the Hemolysis result in data set [1] is “++”. Also, in data set [2] (DSM 348), the “MIC K. rhizophila” value came out at 0.8 µM (≈ 1.65 µg/mL). Further, the “MIC E. coli (DSM 498)” value in data set [3] (DSM 498) was 12.5 µM (≈ 25.8 µg/mL). In data set [4] (DSM 18396), the “MIC E. helveticus” value was 1.6 µM (≈ 3.3 µg/mL). Further, the “Toxicity (HeLa)” value in data set [5] was “+++”.
With `CC[C@H](C)[C@H](NC(=O)[C@H](C)NC(=O)CNC(=O)[C@H](C)NC(=O)[C@H](CCCCN)NC(=O)[C@H](CO)NC(=O)[C@H](C)NC(=O)[C@H](CCSC)NC(=O)CN)C(=O)N[C@@H](C)C(=O)NCC(=O)N[C@@H](CCCCN)C(=O)N[C@H](C(=O)N[C@@H](C)C(=O)N[C@@H](CCCCN)C(=O)N[C@H](C(=O)N[C@@H](C)C(=O)N[C@@H](CC(C)C)C(=O)N[C@@H](CCCCN)C(=O)N[C@@H](C)C(=O)N[C@@H](CC(C)C)C(N)=O)C(C)C)[C@@H](C)CC` [PGLa] (H-GMASKAGAIAGKIAKVALKAL-NH2), in data set [1], the “HC10, concentration that induced 10% hemolysis” value is 16 µM. In data set [1] (overview Figure 5), the Hemolysis result is “++”. Besides, the “MIC K. rhizophila” value in data set [2] (setting [9]) came out at 4.1 µM (≈ 8.07 µg/mL). Further, the “MIC E. coli (DSM 498)” value in data set [3] (setting [9]) is 25 µM (≈ 49.2 µg/mL). Further, the “MIC E. helveticus” value in data set [4] (setting [9]) was determined as 16.3 µM (≈ 32.1 µg/mL). Besides, in data set [5], the “Toxicity (HeLa)” value is listed as “+” and the “HeLa cells” value is 10 µM.
`N=C(N)NCCC[C@H](NC(=O)CN)C(=O)N[C@@H](CCCCN)C(=O)N[C@@H](CCCCN)C(=O)N[C@@H](CCCNC(=N)N)C(=O)N[C@@H](CCCNC(=N)N)C(=O)N[C@@H](CCC(N)=O)C(=O)N[C@@H](CCCNC(=N)N)C(=O)N[C@@H](CCCNC(=N)N)C(=O)N[C@@H](CCCNC(=N)N)C(=O)N1CCC[C@H]1C(=O)N1CCC[C@H]1C(=O)N[C@@H](CCC(N)=O)C(=O)O` [TAT]: in data set [1], the “HC10, concentration that induced 10% hemolysis” value is on record as >>100 μM. In addition, the Hemolysis entry in data set [1] (overview Figure 5) is reported as “-”. In addition, in data set [1] (peptide concentrations up to 100 µM), the “Hemolytic activity, in words” value is recorded as “hardly any hemolytic activity”. Also, in data set [6], the “Hemolytic activity, in words (literature)” value is on record as “did not show any hemolytic activity”. In addition, the “MIC K. rhizophila” value in data set [2] (setting [9]) is 125 µM (≈ 215 µg/mL). The “MIC E. coli (DSM 498)” value in data set [3] (setting [9]) was >500 ^e μM. Also, the “MIC E. helveticus” value in data set [4] (setting [9]) was 500 µM (≈ 860 µg/mL). In addition, the “MIC over the three tested strains” value in data set [7] is listed as “at least 125 µM”. In data set [5], the “Toxicity (HeLa)” value is recorded as “-”; the “HeLa cells” value is > 20 μM and > 20 ^e μM.
As to Ac-GRKKRRQRRRPWQ-NH2 [TATP59W], the “Lipid mixing, in words” value in data set [8] is recorded as “high extent of lipid mixing”.
